Drawing on the supplement of paper PMC10307832, this text covers relative viability for four compounds.

For the first test, the system named is EPLC-272H. As to the kind of experiment: relative viability (nuclei count vs DMSO), 5 days (fraction); higher = more cells survive. The following applies: first compound 0.6325 µM. Summed up: (§1)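 Five library-drug doses in √10 steps were combined with a fixed anchor-drug dose, or a single drug was given alone, by pin tool to lung cancer cell lines in 1536-well plates the day after seeding. Nuclei were stained and counted after 5 days. Relative viability is the nuclei count in treated wells over that in vehicle wells, taken as the median of duplicate plates.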
Regarding `COCC1(CO)C(=O)C2CCN1CC2` (stereo unspecified) [PRIMA-1MET] + CS(=O)(=O)CCNCc1ccc(-c2ccc3ncnc(Nc4ccc(OCc5cccc(F)c5)c(Cl)c4)c3c2)o1 [Lapatinib] (partner 2 µM), the relative viability was 0.767.

With `COCC1(CO)C(=O)C2CCN1CC2` (stereo unspecified) [PRIMA-1MET] + C[C@]1(O)C[C@@H](c2nc(-c3ccc4ccc(-c5ccccc5)nc4c3)c3c(N)nccn32)C1 [Linsitinib] (partner 1 µM), the relative viability was determined as 1.01.

In turn, `COCC1(CO)C(=O)C2CCN1CC2` (stereo unspecified) [PRIMA-1MET] + CC(C)C[C@H](NC(=O)[C@H](Cc1ccccc1)NC(=O)c1cnccn1)B(O)O [Bortezomib] (partner 0.002 µM) gave a relative viability of 0.847.

`COCC1(CO)C(=O)C2CCN1CC2` (stereo unspecified) [PRIMA-1MET] + Cc1nc(NC(=O)N2CCC[C@H]2C(N)=O)sc1-c1ccnc(C(C)(C)C(F)(F)F)c1 [Alpelisib] (partner 2 µM) registered a relative viability of 0.784.

The test is the same for the next values; noted with them: first compound 2 µM.
The compound `COCC1(CO)C(=O)C2CCN1CC2` (stereo unspecified) [PRIMA-1MET] + CS(=O)(=O)CCNCc1ccc(-c2ccc3ncnc(Nc4ccc(OCc5cccc(F)c5)c(Cl)c4)c3c2)o1 [Lapatinib] (partner 2 µM) had a relative viability of 0.905.

In the case of `COCC1(CO)C(=O)C2CCN1CC2` (stereo unspecified) [PRIMA-1MET] + C[C@]1(O)C[C@@H](c2nc(-c3ccc4ccc(-c5ccccc5)nc4c3)c3c(N)nccn32)C1 [Linsitinib] (partner 1 µM), the relative viability worked out at 1.06.

`COCC1(CO)C(=O)C2CCN1CC2` (stereo unspecified) [PRIMA-1MET] + CC(C)C[C@H](NC(=O)[C@H](Cc1ccccc1)NC(=O)c1cnccn1)B(O)O [Bortezomib] (partner 0.002 µM) came in with a relative viability of 0.966.

As for `COCC1(CO)C(=O)C2CCN1CC2` (stereo unspecified) [PRIMA-1MET] + Cc1nc(NC(=O)N2CCC[C@H]2C(N)=O)sc1-c1ccnc(C(C)(C)C(F)(F)F)c1 [Alpelisib] (partner 2 µM), the relative viability was 0.869.

The same test, now with this note: first compound 6.325 µM.
Compound `COCC1(CO)C(=O)C2CCN1CC2` (stereo unspecified) [PRIMA-1MET] + CS(=O)(=O)CCNCc1ccc(-c2ccc3ncnc(Nc4ccc(OCc5cccc(F)c5)c(Cl)c4)c3c2)o1 [Lapatinib] (partner 2 µM) gave a relative viability of 0.971.

In turn, `COCC1(CO)C(=O)C2CCN1CC2` (stereo unspecified) [PRIMA-1MET] + C[C@]1(O)C[C@@H](c2nc(-c3ccc4ccc(-c5ccccc5)nc4c3)c3c(N)nccn32)C1 [Linsitinib] (partner 1 µM) yielded a relative viability of 1.2.

Turning to `COCC1(CO)C(=O)C2CCN1CC2` (stereo unspecified) [PRIMA-1MET] + CC(C)C[C@H](NC(=O)[C@H](Cc1ccccc1)NC(=O)c1cnccn1)B(O)O [Bortezomib] (partner 0.002 µM), the relative viability was found to be 1.2.

`COCC1(CO)C(=O)C2CCN1CC2` (stereo unspecified) [PRIMA-1MET] + Cc1nc(NC(=O)N2CCC[C@H]2C(N)=O)sc1-c1ccnc(C(C)(C)C(F)(F)F)c1 [Alpelisib] (partner 2 µM) returned a relative viability of 0.869.

The test is the same for the next values; noted with them: first compound 20 µM.
As for `COCC1(CO)C(=O)C2CCN1CC2` (stereo unspecified) [PRIMA-1MET] + CS(=O)(=O)CCNCc1ccc(-c2ccc3ncnc(Nc4ccc(OCc5cccc(F)c5)c(Cl)c4)c3c2)o1 [Lapatinib] (partner 2 µM), the relative viability amounted to 0.333.

The compound `COCC1(CO)C(=O)C2CCN1CC2` (stereo unspecified) [PRIMA-1MET] + C[C@]1(O)C[C@@H](c2nc(-c3ccc4ccc(-c5ccccc5)nc4c3)c3c(N)nccn32)C1 [Linsitinib] (partner 1 µM) had a relative viability of 0.973.

As to `COCC1(CO)C(=O)C2CCN1CC2` (stereo unspecified) [PRIMA-1MET] + CC(C)C[C@H](NC(=O)[C@H](Cc1ccccc1)NC(=O)c1cnccn1)B(O)O [Bortezomib] (partner 0.002 µM), the relative viability amounted to 0.686.

`COCC1(CO)C(=O)C2CCN1CC2` (stereo unspecified) [PRIMA-1MET] + Cc1nc(NC(=O)N2CCC[C@H]2C(N)=O)sc1-c1ccnc(C(C)(C)C(F)(F)F)c1 [Alpelisib] (partner 2 µM) came in with a relative viability of 0.667.

The next test concerns A549. Described as above. The following applies: first compound 0.2 µM. In a few lines: as §1
`COCC1(CO)C(=O)C2CCN1CC2` (stereo unspecified) [PRIMA-1MET] + CS(=O)(=O)CCNCc1ccc(-c2ccc3ncnc(Nc4ccc(OCc5cccc(F)c5)c(Cl)c4)c3c2)o1 [Lapatinib] (partner 2 µM) showed a relative viability of 1.07.

Turning to `COCC1(CO)C(=O)C2CCN1CC2` (stereo unspecified) [PRIMA-1MET] + C[C@]1(O)C[C@@H](c2nc(-c3ccc4ccc(-c5ccccc5)nc4c3)c3c(N)nccn32)C1 [Linsitinib] (partner 1 µM), the relative viability was 0.708.

In turn, `COCC1(CO)C(=O)C2CCN1CC2` (stereo unspecified) [PRIMA-1MET] + Cc1nc(NC(=O)N2CCC[C@H]2C(N)=O)sc1-c1ccnc(C(C)(C)C(F)(F)F)c1 [Alpelisib] (partner 2 µM) registered a relative viability of 0.728.

The test is the same for the next values; noted with them: first compound 0.6325 µM.
On to `COCC1(CO)C(=O)C2CCN1CC2` (stereo unspecified) [PRIMA-1MET] + CS(=O)(=O)CCNCc1ccc(-c2ccc3ncnc(Nc4ccc(OCc5cccc(F)c5)c(Cl)c4)c3c2)o1 [Lapatinib] (partner 2 µM), for which the relative viability came to 0.977.

`COCC1(CO)C(=O)C2CCN1CC2` (stereo unspecified) [PRIMA-1MET] + C[C@]1(O)C[C@@H](c2nc(-c3ccc4ccc(-c5ccccc5)nc4c3)c3c(N)nccn32)C1 [Linsitinib] (partner 1 µM) yielded a relative viability of 0.559.

With `COCC1(CO)C(=O)C2CCN1CC2` (stereo unspecified) [PRIMA-1MET] + Cc1nc(NC(=O)N2CCC[C@H]2C(N)=O)sc1-c1ccnc(C(C)(C)C(F)(F)F)c1 [Alpelisib] (partner 2 µM), the relative viability stood at 0.803.

The test is the same for the next values; noted with them: first compound 2 µM.
Consider `COCC1(CO)C(=O)C2CCN1CC2` (stereo unspecified) [PRIMA-1MET] + CS(=O)(=O)CCNCc1ccc(-c2ccc3ncnc(Nc4ccc(OCc5cccc(F)c5)c(Cl)c4)c3c2)o1 [Lapatinib] (partner 2 µM), for which the relative viability came to 1.05.

Consider `COCC1(CO)C(=O)C2CCN1CC2` (stereo unspecified) [PRIMA-1MET] + C[C@]1(O)C[C@@H](c2nc(-c3ccc4ccc(-c5ccccc5)nc4c3)c3c(N)nccn32)C1 [Linsitinib] (partner 1 µM), for which the relative viability was determined as 0.281.

The compound `COCC1(CO)C(=O)C2CCN1CC2` (stereo unspecified) [PRIMA-1MET] + Cc1nc(NC(=O)N2CCC[C@H]2C(N)=O)sc1-c1ccnc(C(C)(C)C(F)(F)F)c1 [Alpelisib] (partner 2 µM) yielded a relative viability of 0.861.

Still in this test, the particulars now being: first compound 6.325 µM.
Take `COCC1(CO)C(=O)C2CCN1CC2` (stereo unspecified) [PRIMA-1MET] + CS(=O)(=O)CCNCc1ccc(-c2ccc3ncnc(Nc4ccc(OCc5cccc(F)c5)c(Cl)c4)c3c2)o1 [Lapatinib] (partner 2 µM): the relative viability came to 1.01.
